Measured values from patent US20130252903A1, “COMPOSITIONS FOR REDUCING OXIDATIVE STRESS AND USES THEREOF” (Universitaetsklinikum Muenster, priority 2007, published 2013).
Square brackets hold non-standard residues; d marks the D form. Ends that are not written are not given here.

Key:
[1] = tested on: human dermal fibroblasts; test: UVA-induced intracellular amplification of ROS (dihydrorhodamine 123, flow cytometry); assay type: cell-based; settings: for effect on UVA-induced intracellular amplification of ROS compared with vitamin C (ascorbate): peptide 10^-8M vs vitamin C 10^-2M, FIG. 2; for effect on UVA-induced intracellular amplification of ROS ("oxidative stress"): peptide 10^-8 M, 24 h pre-incubation, UVA 10 J/cm^2, human dermal fibroblasts, FIG. 1, p<0.001
Protocol: The modulating effect of the tripeptides Lys-Pro-Val (KPV), Lys-D-Pro-Thr (KPT) and Thyrotropin Releasing Hormones (TRH, Protirelin, Thyoliberin, pGlu-His-Pro) was examined on human dermal fibroblasts that were seeded into 3.5 cm^2 tissue culture dishes in a density of 150,000 per dish in […] medium. Two days after seeding the cells, the medium supplemented with 10% foetal calf serum, 1% L-glutamine and 1% penicillin/streptomycin was exchanged with serum-free RPMI medium and pre-incubated for 24 hours with KPV, […] Subsequently, the cells were exposed to a physiological dose of UVA radiation (10 J/cm^2). Immediately after radiation, the cells were incubated with 5 μM dihydrorhodamine 123 plus 5 mM glucose in phosphate buffer (PBS) for 30 minutes. Subsequently, the cells were trypsinized, resuspended in PBS with 5 mM glucose and analyzed by means of flow cytometry (FACS, FACSCalibur with 488 nm argon laser). The above dihydrorhodamine probe is oxidized in the presence of intracellular ROS into green fluorescent […] and, thus, can be measured fluorometrically. A total of 10×10^3 cells per probe were analyzed and evaluated using CELL-QUEST software. The median of the FL-1 channel was used as parameter for the intracellular ROS amount, since it represents the maximum number of cells with the highest fluorescence. Duplicate and triplicate analyses were carried out and all assays were reproduced three times in independent experiments.

[2] = tested on: B16.F1 melanoma cells; test: Extracellular melanin accumulation (in situ melanin assay, optical density 405 nm); assay type: cell-based, mouse; settings: 72 hrs; for melanotropic effect (extracellular melanin accumulation): peptides at 10^-6, 10^-8 and 10^-10 M, FIG. 3
From the text: It is also preferred that the compounds of the invention have no or merely a negligible melanotropic effect. “Melanotropic effect” means that the compound induces the extracellular melanin accumulation in a cell assay in accordance with the method described in the appended example 2 and/or in accordance with the method described in Siegrist and Eberle (Anal. Biochem. 1986; 159; 191-197), title “In situ melanin assay for MSH using mouse B16 melanoma cells in culture”. “No or negligible” means that the mean melanin accumulation which is induced by the compounds of the invention exceeds the mean melanin accumulation which is induced by at least one of the two compounds as exemplified in Example 2 by not more than about 40%, 30%, 20%, 15%, 10%, 5%, 2.5%, 2% or 1%, preferably under conditions which equate to or are identical with those set out in Example 2. The skilled person is able to justify which assay conditions/assays equate with the assay/conditions exemplified in the appended examples. The melanin accumulation evaluated in Example 2 is depicted in FIG. 3. The effect of the compounds of the invention on extracellular melanin accumulation is thus determinable by the methods disclosed herein.
To exclude a potential melanotropic effect of KPT and KPV, 2500 B16.F1 melanoma cells were seeded out on 96-well tissue culture plates in quintuplicate at a density of 2500 cells/well in regular culture medium. On the next day routine medium was changed to medium containing the above peptides at 10^−6, 10^−8 and 10^−10 M vs. medium containing the superpotent MSH analogue NDP-α-MSH (10^−8 M). The latter served as positive control while cells without any other stimulus served as negative control. Cells were then cultured for 72 hrs followed by photometric measurement of the optical density (wavelength 405 nm) of each well. This procedure measures the amount of extracellular melanin produced by the cells according to the well-established and described methodology by Siegrist & Eberle, Anal. Biochem. 1986; 159: 191-197.

Row | Compound | antioxidative protective effects in human dermal fibroblasts (summary statement) [1] | effect on UVA-induced intracellular amplification of ROS compared with vitamin C (ascorbate) [1] | effect on UVA-induced intracellular amplification of ROS ("oxidative stress") [1] | melanotropic effect (extracellular melanin accumulation) [2] | melanotropic effect (extracellular melanin accumulation), positive control ([2]; 10^-8 M)
1 | NC(=O)[C@@H]1CCCN1C(=O)[C@H](Cc1c[nH]cn1)NC(=O)[C@@H]1CCC(=O)N1 [TRH, L-Pyroglutamyl-L-histidyl-L-prolinamid] | show antioxidative protective effects | comparable with that of vitamin C | suppressed UVA-induced intracellular amplification of ROS | – | –
2 | Lys-Pro-Val [KPV] | show antioxidative protective effects | – | suppressed UVA-induced intracellular amplification of ROS | did not have any melanotropic effect | –
3 | Lys-[dP]-Thr [KPT] | show antioxidative protective effects | comparable with that of vitamin C | suppressed UVA-induced intracellular amplification of ROS | did not have any melanotropic effect | –
4 | NDP-α-MSH [reference compound] | – | – | – | – | p<0.001 vs. control
